In patent publication US10940118B2, “Nanoparticles and methods of producing the same” (THE BOARD OF TRUSTEES OF THE UNIVERSITY OF ILLINOIS, priority 2013, dated 2021):

Key:
[1] = test system: ICR mice; test: Hot plate test, acute morphine tolerance; type: in vivo; settings: oral administration following subcutaneous injection of morphine
Experimental: For assessment of response latencies to thermal stimulus in mice, a Cold/Hot Plate Analgesia Meter (Ugo Basile, Comerio, Italy) was used. In this study, mice were placed on a hot plate that was thermostatically maintained at 55±1° C. The nociceptive response was evaluated as the latency to the first licking or lifting of the rear paws or escape jumping. Mice were removed from the hot plate immediately after displaying the response and a cut-off time of 30 sec was set to prevent tissue damage. The anti-nociceptive effect was measured using the same percentage of maximal possible effect (% MPE) as above.
(§1) To induce acute tolerance and dependence, separate groups of three ICR mice (20-25 g) were treated with a large dose of morphine (100 mg/kg s.c.). Maximal morphine tolerance and dependence peaked at approximately 4 to 6 h. Mice in the control group received an equal volume of saline. Tolerance to opioids was assessed 4.5 h later by monitoring the antinociceptive effect produced by a test dose of morphine (10 mg/kg, s.c.). The presence of opioid tolerance was signified by a significant reduction of antinociceptive effect. To examine dependence on opioids, mice were challenged with naloxone (10 mg/kg i.p.) 5h after the administration of morphine (100 mg/kg s.c.). Mice were immediately placed inside glass cylinders, and naloxone-induced vertical jumps were recorded for 15 min. […]

[2] = test system: ICR mice; test: 52° C. warm-water tail-flick test, acute morphine tolerance; type: in vivo; settings: oral administration following subcutaneous injection of morphine
Experimental: Basal nociception and morphine-induced antinociception were studied using the 52° C. warm-water tail-flick test. In brief, mice were held over the water bath and one third of the distal portion of the tail was immersed into the water. The latency to a quick tail-flick response was recorded as a base-line measurement. Any mouse not responding within 5 sec was excluded from further experiment. To prevent tissue damage, a cut-off time of 12 sec was applied. Morphine-induced antinociception was evaluated 30 min after the injection of a testing dose of morphine (10 mg/kg s.c.), and expressed as the percentage of maximal possible effect (% MPE) according to the following formula: % MPE=100×(postdrug latency−predrug latency)/(cut off−predrug latency)
as §1, with “To examine dependence on opioids, mice were challenged with naloxone (10 mg/kg i.p.) 5h after the administration of morphine (100 mg/kg s.c.).” left out

COc1cc(C=CC(=O)CC(=O)C=Cc2ccc(O)c(OC)c2)ccc1O [unformulated curcumin, 1,7-bis-(4-hydroxy-3-methoxyphenyl)-1,6-heptadiene-3,5-dione]
Analgesia in hot plate test [1]: minimal effect
Analgesia in tail-flick test [2]: minimal effect
